Among the test systems are SNB-19; ACHN; T47D; U-251; MDA-MB-435; SK-MEL-28; EKVX; A498; NCI-H23; MOLT-4; OVCAR-5; SF-295; LOX IMVI; RPMI-8226; IGROV-1; SK-MEL-2; OVCAR-3; M14; Malme-3M; A549.
What all share (assay): DTP human tumour cell line panel, 48 h

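All cell lines were grown in 96-well plates and treated with compound for 48 hours. GI50 marks 50% less growth.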 Active and inactive are the calls of the source. Rule as the data show it: active = GI50 up to about 1.1 µM and inactive = higher.

Here are results for four compounds from ChEMBL document CHEMBL1201862, “PubChem BioAssay data set” (2004).

One may read the GI50 as the concentration at which growth is held to half of that of the control.

With `COc1ccc(CNC2=Nc3ccncc3S(=O)(=O)N2c2ccccc2)cc1`, the GI50 in the assay on SNB-19 is > 100 µM (inactive); in the assay on ACHN, 34 µM (inactive); in the assay with T47D, 29.3 µM (inactive); with U-251, 68.1 µM (inactive); in the assay with MDA-MB-435, 24.9 µM (inactive); with SK-MEL-28, 21.6 µM (inactive). Besides, the GI50 is 65 µM (inactive) in the assay with EKVX; 35.9 µM (inactive) with A498; 35.5 µM (inactive) in the assay on NCI-H23; 19 µM (inactive) with MOLT-4; > 100 µM (inactive) in the assay with OVCAR-5; 65 µM (inactive) with SF-295. For the same compound, the GI50 with LOX IMVI is 46.9 µM (inactive); in the assay with RPMI-8226, 16.4 µM (inactive); in the assay on IGROV-1 it was 39.9 µM (inactive); in the assay on SK-MEL-2, 41.7 µM (inactive); with OVCAR-3 it was 82.8 µM (inactive); with M14, 57.7 µM (inactive). Further, the GI50 is 49.9 µM (inactive) with Malme-3M and 40.6 µM (inactive) in the assay on A549.

On to `C=C1C(=O)OC2/C=C(\C)C3OC3/C=C(/C(=O)OC)C(OC(C)=O)C(OC(=O)C(C)(O)C(C)OC(C)=O)C12` (stereo not given), for which the GI50 in the assay with SNB-19 is 14.5 µM (inactive); in the assay on ACHN, 3.78 µM (inactive); in the assay with T47D, 6.3 µM (inactive); in the assay on U-251, 3.03 µM (inactive); with MDA-MB-435, 2.03 µM (inactive); with SK-MEL-28, 2.23 µM (inactive). Moreover, the GI50 was 10.5 µM (inactive) in the assay with EKVX; 3.24 µM (inactive) with A498; 2.5 µM (inactive) with NCI-H23; 0.647 µM (active) with MOLT-4; 5.58 µM (inactive) with OVCAR-5; 9.2 µM (inactive) in the assay with SF-295. The GI50 in the assay on LOX IMVI is 1.53 µM (inactive); in the assay with RPMI-8226, 0.92 µM (active); in the assay with IGROV-1, 1.98 µM (inactive); with SK-MEL-2, 4.59 µM (inactive); in the assay with OVCAR-3, 3.13 µM (inactive); in the assay with M14 it was 2.39 µM (inactive). In addition, the GI50 is 2.14 µM (inactive) with Malme-3M and 14.6 µM (inactive) in the assay with A549.

For the compound `NC(=O)N/N=C(\Cc1nc2ccc(Cl)cc2nc1O)C(=O)Nc1ccc(Cl)cc1Cl`, the GI50 in the assay with SNB-19, in the assay with ACHN, in the assay with T47D, in the assay on U-251, in the assay on MDA-MB-435 and in the assay on SK-MEL-28 was > 100 µM (inactive) in each case. The GI50 in the assay with EKVX is 10.6 µM (inactive); in the assay with A498 it was > 100 µM (inactive); in the assay on NCI-H23, > 100 µM (inactive); with MOLT-4 it was > 100 µM (inactive); in the assay on OVCAR-5 it was > 100 µM (inactive); with SF-295, > 100 µM (inactive). Also, the GI50 in the assay with LOX IMVI is > 100 µM (inactive); in the assay on RPMI-8226 it was > 100 µM (inactive); with IGROV-1 it was 81.5 µM (inactive); in the assay with SK-MEL-2, > 100 µM (inactive); in the assay with OVCAR-3, > 100 µM (inactive); in the assay on M14, > 100 µM (inactive). The GI50 in the assay with Malme-3M and in the assay with A549 was > 100 µM (inactive) in each case.

Take `O=[N+]([O-])O` [NITRIC ACID]: the GI50 in the assay on SNB-19, with ACHN, in the assay with T47D, with U-251, in the assay with MDA-MB-435 and with SK-MEL-28 was > 100 µM (inactive) throughout. Besides, the GI50 in the assay with EKVX, with A498, in the assay with NCI-H23, in the assay on MOLT-4, in the assay with OVCAR-5 and in the assay on SF-295 was > 100 µM (inactive) in each case. The GI50 in the assay on LOX IMVI, with RPMI-8226, with IGROV-1, with SK-MEL-2, in the assay with OVCAR-3 and in the assay on M14 was > 100 µM (inactive) each time. In addition, the GI50 in the assay with Malme-3M and in the assay on A549 was > 100 µM (inactive) throughout.
